These results are taken from ChEMBL document CHEMBL2069214, “Discovery of triazolopyrimidine-based PDE8B inhibitors: exceptionally ligand-efficient and lipophilic ligand-efficient compounds for the treatment of diabetes” (Bioorg Med Chem Lett, 2012).

Values after ≈ are worked out from the molar mass of the structure shown. Active and inactive are the calls of the source. No cut-off for these calls is given here.

For data set [1], the target named is High affinity cAMP-specific and IBMX-insensitive 3',5'-cyclic phosphodiesterase 8B (Homo sapiens, UniProt O95263). Kind of data set: Inhibition of PDE8B expressed in Sf9 insect cells.
Data set [2] can be described thus: Intrinsic clearance in human liver microsomes. As to conditions: read-out: CLH. The data set is classed as ADME, Microsome. (In general: Liver microsomes are a subcellular fraction often used to study metabolism.)
Data set [3] has as its target 3',5'-cyclic-AMP phosphodiesterase 4D (Homo sapiens) (UniProt Q08499). Nature of the data set: Inhibition of PDE4D at 1 uM.
For data set [4], the target named is 3',5'-cyclic-AMP phosphodiesterase 4C (Homo sapiens) (UniProt Q08493). Kind of data set: Inhibition of PDE4C at 1 uM.
The nature of data set [5]: (§1) Intrinsic clearance in rat liver microsomes. The data set is classed as ADME, Microsome. As to conditions: liver microsomes, read-out: CLH.
Data set [6] is described as follows: Clearance in iv dosed dog. The data set is classed as ADME, organism-based, Canis lupus familiaris. The following applies: in vivo.
Data set [7] can be described thus: Genotoxicity in micronucleus.
In data set [8] the test system is Salmonella typhimurium. Kind of data set: Genotoxicity in Salmonella typhimurium. The data set is classed as toxicity, organism-based. As to conditions: salmonella enterica subsp. enterica serovar typhimurium.
Data set [9] in a line: Oral bioavailability in rat. As to conditions: in vivo. The data set is classed as ADME, organism-based.
Data set [10] can be described thus: Clearance in iv dosed rat. The data set is classed as ADME, organism-based. The following applies: in vivo.
Data set [11] is described as follows: Solubility of the compound. The data set is classed as physicochemical.
Data set [12] is described as follows: Volume of distribution at steady state in iv dosed dog. The data set is classed as ADME, organism-based, Canis lupus familiaris. As to conditions: in vivo, read-out: Vdss.
Data set [13] is described as follows: Oral bioavailability in dog. The data set is classed as ADME, organism-based, Canis lupus familiaris. As to conditions: in vivo.
Data set [14] in a line: Volume of distribution at steady state in iv dosed rat. The data set is classed as ADME, organism-based. The following applies: in vivo, read-out: Vdss.
Data set [15] is described as follows: Solubility of the compound at pH 4. The data set is classed as physicochemical. The following applies: buffer.
For data set [16], the target named is Voltage-gated inwardly rectifying potassium channel KCNH2 (Homo sapiens, UniProt Q12809). Kind of data set: Inhibition of human ERG.
The species named for data set [17] is Homo sapiens. Nature of the data set: Inhibition of PDE.
In data set [18] the test system is Pancreatic islet. Kind of data set: Induction of insulin secretion in human pancreatic islet cells at 0.001 to 100 uM in presence of glucose. The data set is classed as functional.
The species entered for data set [19] is Homo sapiens. Nature of the data set: Selectivity ratio for PDE to PDE8B.
The nature of data set [20]: Fraction unbound in dog plasma. The data set is classed as ADME, cell-free, Canis lupus familiaris.
Data set [21] has as its target High affinity cAMP-specific and IBMX-insensitive 3',5'-cyclic phosphodiesterase 8A (Homo sapiens, UniProt O60658). Nature of the data set: Inhibition of PDE8A.
The nature of data set [22]: Dissociation constant, pKa of the compound. The data set is classed as physicochemical.
Data set [23] is filed under the species Canis familiaris. Nature of the data set: Cardiotoxicity in dog assessed as increase in heart rate at > 10 times IC50. The data set is classed as toxicity, organism-based, Canis lupus familiaris. The following applies: in vivo.
Data set [24] is described as follows: Fraction unbound in human plasma. The data set is classed as ADME, cell-free.
The nature of data set [25]: Efflux ratio of permeability of the compound across MDCK cells. The following applies: dog. The data set is classed as ADME, cell-based, Canis lupus familiaris.
The target of data set [26] is Kappa-type opioid receptor (Homo sapiens) (UniProt P41145). Kind of data set: Inhibition of kappa opioid receptor.
Data set [27] is described as follows: Fraction unbound in rat plasma. The data set is classed as ADME, cell-free.
The nature of data set [28]: Solubility of the compound at pH 7.4. As to conditions: buffer. The data set is classed as physicochemical.
The species named for data set [29] is Canis familiaris. Kind of data set: Cardiotoxicity in dog assessed as increase in blood pressure at > 10 times IC50. The data set is classed as toxicity, organism-based, Canis lupus familiaris.
Data set [30] has as its system Liver microsomes. The description is as §1. The data set is classed as ADME, Microsome. The following applies: microsomes.

High affinity cAMP-specific and IBMX-insensitive 3',5'-cyclic phosphodiesterase 8B, sequence (O95263 whole entry): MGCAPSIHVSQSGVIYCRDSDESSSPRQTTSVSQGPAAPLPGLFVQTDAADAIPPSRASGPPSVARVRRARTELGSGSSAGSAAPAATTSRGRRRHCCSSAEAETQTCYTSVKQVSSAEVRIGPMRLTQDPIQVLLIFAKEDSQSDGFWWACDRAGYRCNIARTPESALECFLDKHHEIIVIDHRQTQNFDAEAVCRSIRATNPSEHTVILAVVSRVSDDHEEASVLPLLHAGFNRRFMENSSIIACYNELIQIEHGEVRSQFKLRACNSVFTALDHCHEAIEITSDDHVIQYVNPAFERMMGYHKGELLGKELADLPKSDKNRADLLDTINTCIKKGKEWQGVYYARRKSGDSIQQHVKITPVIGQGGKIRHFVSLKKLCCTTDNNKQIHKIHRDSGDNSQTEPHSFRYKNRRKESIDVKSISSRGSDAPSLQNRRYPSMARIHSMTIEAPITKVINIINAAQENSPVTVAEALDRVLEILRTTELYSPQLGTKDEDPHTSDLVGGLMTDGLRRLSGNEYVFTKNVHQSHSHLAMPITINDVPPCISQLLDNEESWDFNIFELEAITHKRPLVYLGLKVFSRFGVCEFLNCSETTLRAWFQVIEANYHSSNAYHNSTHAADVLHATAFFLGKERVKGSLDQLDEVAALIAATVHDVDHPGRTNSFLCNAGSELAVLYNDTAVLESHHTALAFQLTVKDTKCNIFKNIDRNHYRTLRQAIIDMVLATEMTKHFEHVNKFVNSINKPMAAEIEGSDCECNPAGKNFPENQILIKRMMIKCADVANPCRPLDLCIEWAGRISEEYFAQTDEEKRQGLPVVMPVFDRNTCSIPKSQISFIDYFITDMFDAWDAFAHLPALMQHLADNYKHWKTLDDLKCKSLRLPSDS
3',5'-cyclic-AMP phosphodiesterase 4C (Homo sapiens), sequence (Q08493 whole entry): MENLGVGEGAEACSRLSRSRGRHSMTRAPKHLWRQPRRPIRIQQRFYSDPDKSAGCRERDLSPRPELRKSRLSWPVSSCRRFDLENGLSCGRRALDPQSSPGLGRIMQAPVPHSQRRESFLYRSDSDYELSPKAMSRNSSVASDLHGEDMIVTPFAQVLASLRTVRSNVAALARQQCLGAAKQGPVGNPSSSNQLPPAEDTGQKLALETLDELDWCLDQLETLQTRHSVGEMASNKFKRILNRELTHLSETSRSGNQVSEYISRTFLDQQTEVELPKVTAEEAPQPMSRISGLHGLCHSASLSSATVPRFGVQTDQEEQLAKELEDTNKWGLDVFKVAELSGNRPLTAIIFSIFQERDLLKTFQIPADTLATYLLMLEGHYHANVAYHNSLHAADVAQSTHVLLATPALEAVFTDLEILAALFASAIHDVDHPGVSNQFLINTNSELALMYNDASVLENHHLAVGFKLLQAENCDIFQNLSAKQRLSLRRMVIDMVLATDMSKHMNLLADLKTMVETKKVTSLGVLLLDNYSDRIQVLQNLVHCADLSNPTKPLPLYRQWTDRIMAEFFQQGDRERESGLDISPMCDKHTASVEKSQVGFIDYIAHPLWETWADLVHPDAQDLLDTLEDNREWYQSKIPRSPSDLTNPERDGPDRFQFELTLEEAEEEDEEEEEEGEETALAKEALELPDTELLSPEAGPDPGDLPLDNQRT
3',5'-cyclic-AMP phosphodiesterase 4D (Homo sapiens), sequence (Q08499 whole entry): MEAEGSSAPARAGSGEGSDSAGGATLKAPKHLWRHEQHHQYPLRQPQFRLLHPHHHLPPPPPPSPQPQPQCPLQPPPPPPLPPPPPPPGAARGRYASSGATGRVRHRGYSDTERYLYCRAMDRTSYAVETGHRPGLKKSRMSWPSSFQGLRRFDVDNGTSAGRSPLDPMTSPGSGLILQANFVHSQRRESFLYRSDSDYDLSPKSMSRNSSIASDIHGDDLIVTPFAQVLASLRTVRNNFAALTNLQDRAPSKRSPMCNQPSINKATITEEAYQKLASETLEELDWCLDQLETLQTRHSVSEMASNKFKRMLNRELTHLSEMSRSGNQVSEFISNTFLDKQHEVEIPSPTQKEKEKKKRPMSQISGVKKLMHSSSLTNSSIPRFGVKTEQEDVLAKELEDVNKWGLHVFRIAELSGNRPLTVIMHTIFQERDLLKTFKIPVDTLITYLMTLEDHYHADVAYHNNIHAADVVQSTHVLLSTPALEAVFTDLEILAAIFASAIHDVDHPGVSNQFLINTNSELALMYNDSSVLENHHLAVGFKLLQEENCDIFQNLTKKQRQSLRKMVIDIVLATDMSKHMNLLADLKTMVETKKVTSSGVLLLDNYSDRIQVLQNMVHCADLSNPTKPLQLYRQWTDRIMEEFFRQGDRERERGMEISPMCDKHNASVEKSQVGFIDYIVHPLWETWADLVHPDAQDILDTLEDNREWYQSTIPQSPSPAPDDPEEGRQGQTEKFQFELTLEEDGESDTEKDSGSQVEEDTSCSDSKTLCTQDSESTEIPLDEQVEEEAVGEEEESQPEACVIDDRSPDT
Voltage-gated inwardly rectifying potassium channel KCNH2, sequence (Q12809 whole entry): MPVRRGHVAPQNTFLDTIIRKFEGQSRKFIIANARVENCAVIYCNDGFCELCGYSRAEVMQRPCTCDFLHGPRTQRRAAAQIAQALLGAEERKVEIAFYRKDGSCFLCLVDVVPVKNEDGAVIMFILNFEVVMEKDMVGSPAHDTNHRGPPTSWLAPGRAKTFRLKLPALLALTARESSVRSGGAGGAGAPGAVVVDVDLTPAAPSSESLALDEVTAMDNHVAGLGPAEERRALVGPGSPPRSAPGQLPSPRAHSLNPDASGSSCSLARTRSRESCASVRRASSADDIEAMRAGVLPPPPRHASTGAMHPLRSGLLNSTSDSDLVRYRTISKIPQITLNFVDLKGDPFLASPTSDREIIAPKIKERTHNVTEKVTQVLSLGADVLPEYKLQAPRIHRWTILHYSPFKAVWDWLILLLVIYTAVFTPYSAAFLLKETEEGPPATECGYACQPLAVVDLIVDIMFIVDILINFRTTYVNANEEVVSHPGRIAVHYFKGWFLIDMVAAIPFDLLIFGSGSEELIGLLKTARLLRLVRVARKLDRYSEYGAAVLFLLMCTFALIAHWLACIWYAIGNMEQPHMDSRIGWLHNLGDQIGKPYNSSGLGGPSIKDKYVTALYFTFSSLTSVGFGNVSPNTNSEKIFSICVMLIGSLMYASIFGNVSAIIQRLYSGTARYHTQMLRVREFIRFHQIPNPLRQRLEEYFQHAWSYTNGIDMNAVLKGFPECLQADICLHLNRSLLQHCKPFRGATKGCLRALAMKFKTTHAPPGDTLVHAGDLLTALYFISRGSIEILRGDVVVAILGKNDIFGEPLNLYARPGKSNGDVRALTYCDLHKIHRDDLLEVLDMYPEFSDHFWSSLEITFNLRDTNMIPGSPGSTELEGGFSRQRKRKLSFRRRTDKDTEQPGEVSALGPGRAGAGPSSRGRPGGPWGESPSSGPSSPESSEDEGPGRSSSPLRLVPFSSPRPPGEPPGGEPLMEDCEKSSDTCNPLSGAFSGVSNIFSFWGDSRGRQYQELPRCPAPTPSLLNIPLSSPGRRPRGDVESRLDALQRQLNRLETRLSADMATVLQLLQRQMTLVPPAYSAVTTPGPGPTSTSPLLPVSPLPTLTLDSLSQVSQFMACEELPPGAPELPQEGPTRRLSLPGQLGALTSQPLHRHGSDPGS
Kappa-type opioid receptor (Homo sapiens), sequence (P41145 whole entry): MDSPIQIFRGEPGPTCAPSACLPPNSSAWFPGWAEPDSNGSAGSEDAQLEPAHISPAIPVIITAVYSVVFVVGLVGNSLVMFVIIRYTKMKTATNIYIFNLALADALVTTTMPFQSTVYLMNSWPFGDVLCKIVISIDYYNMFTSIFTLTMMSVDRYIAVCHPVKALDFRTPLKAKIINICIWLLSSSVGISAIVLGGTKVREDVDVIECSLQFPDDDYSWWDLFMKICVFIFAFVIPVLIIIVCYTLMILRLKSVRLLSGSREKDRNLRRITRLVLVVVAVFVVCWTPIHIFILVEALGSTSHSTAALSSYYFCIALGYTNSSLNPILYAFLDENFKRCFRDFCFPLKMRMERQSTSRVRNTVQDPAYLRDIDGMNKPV
High affinity cAMP-specific and IBMX-insensitive 3',5'-cyclic phosphodiesterase 8A, sequence (O60658 whole entry): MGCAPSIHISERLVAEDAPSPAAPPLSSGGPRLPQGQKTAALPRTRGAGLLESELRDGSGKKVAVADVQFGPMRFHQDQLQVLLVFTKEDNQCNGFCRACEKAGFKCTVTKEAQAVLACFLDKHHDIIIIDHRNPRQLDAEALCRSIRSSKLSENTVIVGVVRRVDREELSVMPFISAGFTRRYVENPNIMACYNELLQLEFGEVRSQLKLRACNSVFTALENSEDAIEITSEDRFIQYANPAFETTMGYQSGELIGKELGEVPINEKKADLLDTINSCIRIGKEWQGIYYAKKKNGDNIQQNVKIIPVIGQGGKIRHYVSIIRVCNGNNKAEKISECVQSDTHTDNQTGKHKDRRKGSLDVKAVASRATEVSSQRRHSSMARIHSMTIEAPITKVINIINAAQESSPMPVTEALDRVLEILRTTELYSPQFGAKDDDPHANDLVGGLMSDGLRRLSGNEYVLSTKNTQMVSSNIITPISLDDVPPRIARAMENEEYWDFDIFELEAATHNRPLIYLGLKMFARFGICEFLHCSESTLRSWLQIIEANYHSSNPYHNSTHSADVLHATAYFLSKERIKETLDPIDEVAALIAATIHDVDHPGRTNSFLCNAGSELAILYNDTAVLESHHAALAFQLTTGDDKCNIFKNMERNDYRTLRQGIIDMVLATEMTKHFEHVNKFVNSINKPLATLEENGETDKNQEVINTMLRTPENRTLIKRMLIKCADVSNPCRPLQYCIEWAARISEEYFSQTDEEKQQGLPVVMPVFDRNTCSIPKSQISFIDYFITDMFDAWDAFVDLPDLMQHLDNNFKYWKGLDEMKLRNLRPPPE

Regarding `Nc1nc(C2CC2)nc2c1nnn2CC1CCCN(Cc2ccccc2)C1` (centres undefined), in data set [1], the IC50 (in general, the midpoint of a concentration-inhibition curve) was found to be 3620 nM. Also, the microsomal CLint in data set [2] amounted to 150 µL/min/mg. The inhibition (as a rule, the relative decrease from the control value, in per cent) in data set [3] came out at 64%; in data set [4], 60%.
In the case of `Nc1nc(-c2ccccc2)nc2c1nnn2CC1CCCCO1` (centres undefined), the microsomal CLint in data set [2] was found to be 17 µL/min/mg.
In the case of `CCc1csc(CN2CCO[C@@H](Cn3nnc4c(N)nc(C)nc43)C2)n1`, the microsomal CLint in [5] was 22 µL/min/mg; in data set [2], 15 µL/min/mg. Further, the clearance (as a rule, the volume of plasma or blood freed of the substance per unit of time) in [6] amounted to 5.6 mL/min/kg; in [10], 24 mL/min/kg. Also, the Activity entry in data set [7] and in [8] was “Non-toxic” in each case. For the same compound, in data set [9], the bioavailability (as a rule, the share of a dose that reaches the circulation, judged against a reference dose that is usually intravenous) was 45%.
Turning to `Nc1nc(C2CC2)nc2c1nnn2CC1CN(Cc2ccccc2)CCO1` (centres undefined), the solubility (as a rule, how much of the substance goes into solution per volume) in data set [11] is “soluble”.
Regarding `Nc1nc(C2CC2)nc2c1nnn2CC1CCCOC1` (centres undefined), the microsomal CLint was 35 µL/min/mg in [5] and under 7.2 µL/min/mg in [2].
For the compound `Nc1nc(C2CC2)nc2c1nnn2C[C@H]1CN(Cc2nccs2)CCO1`, the microsomal CLint worked out at 50 µL/min/mg in [5] and 20 µL/min/mg in data set [2]. The Activity result in data set [7] and in data set [8] was “Non-toxic” in each case. The compound further yielded a bioavailability in data set [9] of 20%. Also, in data set [10], the clearance came out at 72 mL/min/kg.
Regarding `Nc1nc(C(F)(F)F)nc2c1nnn2C[C@H]1CN(Cc2ccccn2)CCO1`, the microsomal CLint in [5] and in [2] was 36 µL/min/mg throughout. Besides, the clearance in data set [6] was found to be 8.5 mL/min/kg; in data set [10] it was 121 mL/min/kg. Further, the Activity result in [7] and in data set [8] was “Non-toxic” each time.
On to `Nc1nc(C(F)(F)F)nc2c1nnn2C[C@H]1CCCO1`, for which the Vd in [12] came to 1.4 L/kg; in [14], 1.7 L/kg. Moreover, the results for the bioavailability in data set [13] and in data set [9] were 13% and 17%, respectively. Besides, the clearance in data set [6] is 22 mL/min/kg; in data set [10] it was 61 mL/min/kg.
Turning to `Cc1ccnc(N2CCCC(Cn3nnc4c(N)nc(C5CC5)nc43)C2)n1` (centres undefined), the figures for the microsomal CLint in [5] and in [2] were 625 µL/min/mg and 303 µL/min/mg, respectively.
For `Nc1nc(C2CC2)nc2c1nnn2C[C@H]1CCCO1`, in that order: under 28 µL/min/mg and 11.9 µL/min/mg.
As to `CCc1nc(Cn2nnc3c(N)nc(C4CC4)nc32)cs1`, the Vd in data set [12] was determined as 0.9 L/kg; in data set [14], 5.5 L/kg. The bioavailability in data set [13] and in data set [9] was under 5% in each case. For the same compound, the microsomal CLint in [5] is under 14 µL/min/mg; in [2], 24.6 µL/min/mg. Also, the clearance in data set [6] was determined as 11 mL/min/kg; in data set [10], 29 mL/min/kg.
On to `Nc1nc(C2CC2)nc2c1nnn2C[C@H]1CN(Cc2ncccn2)CCO1`, for which the values for the microsomal CLint in data set [5] and in data set [2] were 75 µL/min/mg and 16 µL/min/mg, respectively. The clearance came out at 7 mL/min/kg in data set [6] and 124 mL/min/kg in data set [10]. Moreover, the Activity entry in data set [7] and in data set [8] was “Non-toxic” throughout.
`FC(F)(F)c1nc(NCc2cccnc2)c2nnn(CC3CCCCO3)c2n1` (centres undefined): the IC50 in data set [1] is over 420 nM.
With `Nc1ncnc2c1nnn2CC1CCCCO1` (centres undefined), the microsomal CLint in data set [2] is under 7.2 µL/min/mg.
Still for that read-out and setting: the result for `Nc1nc(C2CC2)nc2c1nnn2Cc1ccc(Cl)cc1` reads under 7.2 µL/min/mg; that for `Nc1nc(C2CCCCC2)nc2c1nnn2CC1CCCCO1` (centres undefined), 100 µL/min/mg.
Turning to `Cc1nc(N)c2nnn(C[C@H]3CN(Cc4nccs4)CCO3)c2n1`, the values for the solubility in [15] and in data set [28] were 2900 µg/mL (≈ 8.37 mM) and 150 µg/mL (≈ 0.433 mM), respectively. The bioavailability in [13] was 100%; in [9], 63%. The IC50 in data set [16] was over 100000 nM; in data set [1], 1.3 nM; in data set [21] it was 1.9 nM. The microsomal CLint in data set [5] was under 14 µL/min/mg; in [2] it was under 8 µL/min/mg. The INH in data set [17] was over 10 µM; in data set [26] it was 1.3 µM. The result in [18] was Active. The clearance stood at 3.5 mL/min/kg in data set [6] and 23 mL/min/kg in [10]. For the same compound, the Activity result in data set [7] is given as “Non-toxic”; in data set [8] it was “Non-toxic”; in [23], “Toxic”; in data set [29], “Toxic”. The Selectivity ratio in [19] is over 1000. Also, the fraction unbound (usually free concentration divided by total concentration) in [20] was 0.78; in [24] it was 0.46; in data set [27], 0.88. The pKa – broadly, the pH at which an ionisable group is half protonated – in data set [22] worked out at 4.9. In data set [25], the efflux ratio (usually a quotient of directional permeabilities that is used to spot active efflux) was 3.5.
Consider `Nc1nc(C2CC2)nc2c1nnn2CC1CCCCO1` (centres undefined), for which the results for the microsomal CLint in data set [30] and in data set [2] were 93 µL/min/mg and under 7.2 µL/min/mg, respectively.
For the compound `CCc1cnc(N2CC[C@@H](Cn3nnc4c(N)nc(C5CC5)nc43)C2)nc1`, the values for the microsomal CLint in data set [5] and in [2] were 244 µL/min/mg and 52 µL/min/mg, respectively.
On to `Nc1nc(C2CC2)nc2c1nnn2Cc1cc(C2CC2)n[nH]1`, for which, in data set [2], the microsomal CLint is under 7.2 µL/min/mg.
For `Cc1nc(N)c2nnn(C[C@H]3CN(Cc4cc(F)cc(F)c4)CCO3)c2n1`, the microsomal CLint in data set [5] stood at 80 µL/min/mg; in data set [2], 36 µL/min/mg. For the same compound, the clearance in [6] amounted to 4.8 mL/min/kg; in data set [10], 28 mL/min/kg. Also, the Activity result in data set [7] and in [8] was “Non-toxic” in each case. The same compound yielded a bioavailability in data set [9] of 12%.
The compound `Nc1nc(C2CC2)nc2c1ncn2C[C@H]1CCCO1` returned an IC50 in [1] of over 2000 nM.
Regarding `Nc1nc(C2CC2)nc2c1nnn2C[C@@H]1CCN(Cc2nccs2)C1`, the IC50 in data set [1] is 206 nM. Also, the microsomal CLint in [5] stood at 230 µL/min/mg; in data set [2], 30 µL/min/mg. Besides, the inhibition in [3] is 52%; in [4] it was 62%.
Consider `CC(C)n1cc(Cn2nnc3c(N)nc(C4CC4)nc32)cn1`, for which the microsomal CLint in data set [2] is under 7.2 µL/min/mg.
Still for that read-out and setting: the figure for `COCc1nc(N)c2nnn(CC3CCCCO3)c2n1` (centres undefined) is under 7.2 µL/min/mg.
